The text below walks through data of PMC6562672, “Dose-Dependent Sorafenib-Induced Immunosuppression Is Associated with Aberrant NFAT Activation and Expression of PD-1 in T Cells” (Cancers, 2019).

The assay has as its system NFAT1. In words: NFAT1 nuclear translocation in T cells by imaging flow cytometry (similarity score). The class given is cell-based, human. The following applies: for nuclear translocation of NFAT1: non-stimulated CD8+ T cells. The procedure:
PBMCs were allowed to ‘recover’ in AIM-V medium (Thermo Fisher Scientific) at 37 °C, 5% CO2 in a humidified atmosphere overnight. 2 × 10^6 cells were treated with 0–10 µM sorafenib for the durations specified in the results section. If the experimental conditions required T cell stimulation, samples were co-treated (stimulated) with 1 µg/mL anti-CD3 and 1 µg/mL anti-CD28 for 2 h. Following treatment, PBMCs were placed on ice to stop drug action and immunophenotyped for CD4, CD8, CD25, and PD-1 (CD279). NFAT1 was detected by indirect labeling. Antibodies were diluted in permeabilization wash buffer (PWB) consisting of 0.1% Triton-X-100 in FCM Buffer (1× phosphate buffered saline (PBS) + 0.5%BSA). The primary Rabbit polyclonal NFAT1 antibody was diluted 1:50 in PWB. Following this, 1:200 dilution of secondary AF647 conjugated F(ab’)2 fragment donkey anti rabbit IgG antibody (Jackson ImmunoResearch Laboratories Inc., West Grove, PA, USA) was added. Just prior to data acquisition on the ImageStream, DAPI was added to all samples (0.5 µg/mL final concentration), to stain the nucleus.
Imaging flow cytometry acquisition, compensation, and analysis was performed on an imaging flow cytometer (ImagestreamX Mk-II; Amnis, part of MilliporeSigma, Seattle, WA, USA) as described previously. Following compensation for spectral overlap, image analysis was performed with IDEAS® software (Amnis, Seattle, WA, USA). To assess nuclear NFAT1 translocation, the corresponding nuclear image and NFAT1 image of each cell was compared and a Similarity Score (SS) was assigned for individual cells using published methods (Figure S3).
For orientation: In flow cytometry, cells or beads pass a laser one at a time.

In the case of `CNC(=O)c1cc(Oc2ccc(NC(=O)Nc3ccc(Cl)c(C(F)(F)F)c3)cc2)ccn1` [sorafenib, Sorafenib], the “nuclear translocation of NFAT1” value is given as “no significant increase” (10 µM, 1 h exposure) and “most significant increase” (10 µM, 4 h exposure). Besides, the “effect on PMA/ionomycin-induced T cell stimulation (NFAT1)” value (10 µM, PMA/ionomycin stimulation, lesser extent than CD3/CD28) is reported as “inhibitory effect”. In addition, the “baseline activity of NFAT1 in T cells” value (10 µM, absence of CD3/CD28 stimulation) is “significantly increased”. For the same molecule, the “anti-CD3/CD28-induced NFAT1 activity” value (10 µM, presence of CD3/CD28 stimulation) is listed as “significantly inhibited”. In addition, the “NFAT1 activation in PD-1+ cells” value (high dose (10 µM), PD-1+ T cells) is reported as “increased”. The NFAT1 activation result (lower doses of sorafenib, absence of exogenous stimulatory factors) is reported as “not observed”.
